According to ChEMBL document CHEMBL5537212, “Benzodioxane Carboxamide Derivatives As Novel Monoamine Oxidase B Inhibitors with Antineuroinflammatory Activity” (ACS Med Chem Lett, 2024):
pIC50: −log10 of the molar value.

Tests used:
[1] = molecular target: T1, Amine oxidase [flavin-containing] A (Homo sapiens, UniProt P21397)
T1 sequence (P21397 whole entry): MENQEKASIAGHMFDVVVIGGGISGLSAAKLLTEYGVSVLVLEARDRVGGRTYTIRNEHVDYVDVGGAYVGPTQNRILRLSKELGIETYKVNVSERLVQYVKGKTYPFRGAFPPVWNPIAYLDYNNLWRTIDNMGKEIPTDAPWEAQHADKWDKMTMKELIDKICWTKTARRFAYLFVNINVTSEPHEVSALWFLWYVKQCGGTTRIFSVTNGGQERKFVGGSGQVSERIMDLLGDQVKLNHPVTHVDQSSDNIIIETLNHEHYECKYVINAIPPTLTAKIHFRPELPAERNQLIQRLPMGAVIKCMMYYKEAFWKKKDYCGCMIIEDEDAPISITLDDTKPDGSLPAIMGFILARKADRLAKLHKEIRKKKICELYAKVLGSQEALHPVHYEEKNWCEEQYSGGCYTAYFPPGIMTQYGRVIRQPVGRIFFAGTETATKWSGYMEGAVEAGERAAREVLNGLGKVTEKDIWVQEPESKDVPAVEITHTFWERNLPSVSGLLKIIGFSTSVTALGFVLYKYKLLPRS
Description: Inhibition of recombinant human MAO-A incubated for 15 mins by Amplex Red reagent and horseradish peroxidase based fluorescence microplate reader analysis

[2] = molecular target: T2, Amine oxidase [flavin-containing] B (Homo sapiens, UniProt P27338); assay: Inhibition of recombinant human MAO-B using benzylamine as substrate at 1 uM incubated for 20 mins by fluorescence microplate reader analysis relative to control; conditions: read-out: INH
T2 sequence (P27338 whole entry): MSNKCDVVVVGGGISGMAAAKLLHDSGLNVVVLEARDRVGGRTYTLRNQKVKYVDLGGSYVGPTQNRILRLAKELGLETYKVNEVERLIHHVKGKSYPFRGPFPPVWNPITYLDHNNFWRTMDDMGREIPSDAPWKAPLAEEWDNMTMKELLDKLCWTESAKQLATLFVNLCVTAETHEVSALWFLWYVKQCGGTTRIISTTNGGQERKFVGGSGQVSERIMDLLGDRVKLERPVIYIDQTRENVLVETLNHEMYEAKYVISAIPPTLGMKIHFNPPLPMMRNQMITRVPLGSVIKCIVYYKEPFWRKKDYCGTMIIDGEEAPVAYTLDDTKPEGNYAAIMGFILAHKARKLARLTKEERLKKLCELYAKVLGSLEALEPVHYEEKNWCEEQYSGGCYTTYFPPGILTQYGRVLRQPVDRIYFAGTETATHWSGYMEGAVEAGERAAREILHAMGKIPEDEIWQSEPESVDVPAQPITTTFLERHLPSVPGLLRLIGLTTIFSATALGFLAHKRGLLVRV

[3] = molecular target: T1, Amine oxidase [flavin-containing] A; assay: Inhibition of recombinant human MAO-A at 0.1 uM incubated for 15 mins by Amplex Red reagent and horseradish peroxidase based fluorescence microplate reader analysis relative to control; conditions: 0.25 h

SMILES: O=C(Nc1ccccc1)c1ccc2c(c1)OCO2
- pIC50 [1]: < 4.40
- inhibition at 1 µM [2]: < 5%

SMILES: COc1ccc(NC(=O)c2ccc3c(c2)OCCO3)cc1OC
- pIC50 [1]: < 4.40
- inhibition at 1 µM [2]: < 5%

SMILES: COc1cccc(NC(=O)c2ccc3c(c2)OCCO3)c1
- pIC50 [1]: < 4.40
- inhibition at 1 µM [2]: 19.7%

SMILES: O=C(NCc1ccccc1)c1ccc2c(c1)OCCO2
- pIC50 [1]: < 4.40
- inhibition at 1 µM [2]: < 5%

SMILES: O=C(Nc1cccc(Cl)c1)c1ccccc1
- pIC50 [1]: < 4.40
- inhibition at 1 µM [2]: < 5%

SMILES: O=C(Nc1ccc2c(c1)OCCO2)c1ccc(Cl)c(Cl)c1
- pIC50 [1]: < 4.40
- inhibition at 1 µM [2]: 30.8%

SMILES: O=C(Nc1ccccc1Cl)c1ccc2c(c1)OCCO2
- pIC50 [1]: < 4.40
- inhibition at 1 µM [2]: < 5%

SMILES: O=C(Nc1cccc(Cl)c1Cl)c1ccc2c(c1)OCCO2
- pIC50 [1]: < 4.40
- inhibition at 1 µM [2]: 53%

SMILES: O=C(Nc1ccc2c(c1)OCCO2)c1ccc2c(c1)OCCO2
- pIC50 [1]: < 4.40
- inhibition at 1 µM [2]: 36.1%

SMILES: COc1ccc(NC(=O)c2ccc3c(c2)OCCO3)cc1Cl
- pIC50 [1]: < 4.40
- inhibition at 1 µM [2]: 27.4%

SMILES: COc1ccc(NC(=O)c2ccc3c(c2)OCCO3)cc1
- pIC50 [1]: < 4.40
- inhibition at 1 µM [2]: < 5%

SMILES: O=C(Nc1ccc2[nH]ncc2c1)c1ccc2c(c1)OCCO2
- pIC50 [1]: < 4.40
- inhibition at 1 µM [2]: 13.8%

SMILES: O=C(Nc1ccccc1F)c1ccc2c(c1)OCCO2
- pIC50 [1]: < 4.40
- inhibition at 1 µM [2]: 19.1%

SMILES: O=C(Nc1ccc(Br)cc1)c1ccc2c(c1)OCCO2
- pIC50 [1]: < 4.40

SMILES: O=C(Nc1ccc(Cl)c(Cl)c1)c1ccccc1
- pIC50 [1]: < 4.40
- inhibition at 1 µM [2]: 40.2%

SMILES: C#CCN(C)CCCOc1ccc(Cl)cc1Cl [CLORGILINE]
- inhibition at 0.1 µM [3]: 79.9%

SMILES: O=C(Nc1ccccc1)c1ccccc1 [N-PHENYLBENZAMIDE]
- pIC50 [1]: < 4.40
- inhibition at 1 µM [2]: < 5%
